Patent US9702865B2, “System and method for high-content oncology assay” (RIGEL PHARMACEUTICALS, INC., priority 2002, dated 2017)
pEC50: −log10 of the molar value.

Columns and labels:
Format in all cases: cell-based
in vitro = conditions: human
Excerpt: (§1) FIG. 9A illustrates one embodiment of processing steps associated with the operation of the cell death analysis module 62. The first processing step of FIG. 9A is to obtain luminescence intensity (LI) values corresponding to defined nuclei of cells captured by the image capture device (block 130), as described above. Based upon these LI values, the minimum nuclear luminescence intensity values (“MNLI”) are obtained (block 132). The MNLI value for a nucleus is the lowest LI value measured for that nucleus, for example, the lowest gray value of the pixels within a specific defined nucleus. At this point, the cell death analysis module 62 may compare the MNLI values of particular cells to a range of predefined MNLI values indicative of viable cells (block 134). A value falling outside this range identifies the cell as being non-viable or dead, whereas a value falling within this range identifies the cell as being viable or alive. Alternatively, the cell death analysis module 62 may be carried out with populations of cells, as illustrated in FIG. 9B. In this instance, MNLI values for a plurality of defined nuclei are obtained (block 142) based upon their LI values (block 140) and the percentage of cells having MNLI values falling outside a specified range of MNLI values is calculated (block 144). This percentage is then compared with a predefined percentage range indicative of a viable cell population (block 146). Cell populations having percentages falling within the predefined range are reported as viable populations, whereas percentages falling outside the predefined range are reported as non-viable populations.
(§2) In one embodiment, the range of MNLI values indicative of viable cells may be calculated from control cell MNLI values using standard statistical analyses. For example, the MNLI values that bound a specified percentage or confidence interval, for example, 80%, 90%, 95% or a higher percentage, of the control cell MNLI values may be used as boundaries to defined the range of MNLI values indicative of viable cells. As this range is only exemplary, it will be appreciated that higher or lower percentages may be utilized. As a specified example, the MNLI values that bound 95% of the MNLI values using a standard statistical analysis yields good results. […] Once applied, the percentage of test cells falling within (or without) the range can be calculated to assess whether the cell population is viable or non-viable. […]
(§3) The coordinates of these DMSO-treated cells form a tight band of MNLI values. Based on a statistical analysis, 95% of the MNLI values measured from this population fall within a range of 481 to 560 intensity units (i.e., within a range of […] from the statistical mean MNLI value). […]

A549 cells [1] = assay: in vitro; conditions: FIG. 10
Excerpt: as §1, §2, §3

A549 cells [2] = assay: cell proliferation assay (nuclei count, cell proliferation analysis module); conditions: Homo sapiens; taxol-treated A549 cells, nuclei count vs concentration, FIG. 5
Excerpt: The cell proliferation analysis module 58 provides information about the ability of cells to divide and proliferate. In general, the cell proliferation analysis module provides such information by counting the number of objects (typically nuclei) identified by the object identification module 57. In one embodiment, the cell proliferation analysis module […] can be used to screen for and/or identify candidate compounds having anti-proliferative activity. According to this embodiment, the proliferation of cells treated with or exposed to a candidate compound of interest can be monitored with the cell proliferation analysis module 58 of the invention. […] In a specific embodiment, samples of equal volume are collected from a cell culture as a function of time and analyzed for proliferation with the cell proliferation analysis module 58 of the invention. […]
In another specific embodiment, adherent cells may be treated with different concentrations of test compound, permitted to incubate for a specified period time and then analyzed with the cell proliferation analysis module 58. Plotting the average number of cells in each sample well as a function of compound concentration provides a curve from which the anti-proliferative IC50 (or EC50) can be determined. […]

| pEC50 (A549 cells [2]) | Structure (SMILES) | viability (in vitro) | induction of cell death (MNLI analysis and visual inspection of images) (A549 cells [1]) |
| --- | --- | --- | --- |
| – | COc1cc([C@@H]2c3cc4c(cc3[C@@H](O[C@@H]3O[C@@H]5CO[C@@H](C)O[C@H]5[C@H](O)[C@H]3O)[C@H]3COC(=O)[C@H]23)OCO4)cc(OC)c1O [etoposide] | 99.5% | do not |
| 8.66 | CC(=O)O[C@H]1C(=O)[C@@]2(C)[C@H]([C@H](OC(=O)c3ccccc3)[C@]3(O)C[C@H](OC(=O)[C@H](O)[C@@H](NC(=O)c4ccccc4)c4ccccc4)C(C)=C1C3(C)C)[C@]1(OC(C)=O)CO[C@@H]1C[C@@H]2O [taxol] | 83% | induce cell death |
